# From patent US9518018B2, “3-alkoxy, thioalkyl and amino-4-amino-6-(substituted)picolinates and their use as herbicides” (Dow AgroSciences LLC, priority 2011, dated 2016)
# Legend:
# [1] = test system: ABUTH: velvetleaf (Abutilon theophrasti); assay: Post-Emergent Test I herbicidal activity; type: in vivo; conditions: Abutilon theophrasti, post-emergence, 336 h, read-out: Visual Growth Reduction (%)-14 Days after Application ABUTH; for pest or weed control at 140 g/ha: Table 3, 140 g ai/ha; for pest or weed control at 280 g/ha: Table 3, 280 g ai/ha; for pest or weed control at 70 g/ha: Table 3, 70 g ai/ha
# In short: (§1)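 Plants grown in greenhouse to first/second true leaf. Compound formulated in acetone:DMSO 97:3 then diluted into crop-oil/surfactant aqueous mix; serial twofold rates. Sprayed at 187 L/ha, 43 cm above canopy; solvent-blank controls. Scored visually at 14 d; probit fit for GR values.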
# [2] = test system: CHEAL: lambsquarters (Chenopodium album); assay: Post-Emergent Test I herbicidal activity; type: in vivo; conditions: Chenopodium album, post-emergence, 336 h, read-out: Visual Growth Reduction (%)-14 Days after Application CHEAL; for pest or weed control at 140 g/ha: Table 3, 140 g ai/ha; for pest or weed control at 280 g/ha: Table 3, 280 g ai/ha; for pest or weed control at 70 g/ha: Table 3, 70 g ai/ha
# In short: as §1
# [3] = test system: CYPES: yellow nutsedge (Cyperus esculentus); assay: Post-Emergent Test I herbicidal activity; type: in vivo; conditions: post-emergence, 336 h, read-out: Visual Growth Reduction (%)-14 Days after Application CYPES; for pest or weed control at 140 g/ha: Table 3, 140 g ai/ha; for pest or weed control at 280 g/ha: Table 3, 280 g ai/ha; for pest or weed control at 70 g/ha: Table 3, 70 g ai/ha
# In short: as §1
# [4] = test system: ECHCG: barnyardgrass (Echinochloa crus-galli); assay: Post-Emergent Test I herbicidal activity; type: in vivo; conditions: post-emergence, 336 h, read-out: Visual Growth Reduction (%)-14 Days after Application ECHCG; for pest or weed control at 140 g/ha: Table 3, 140 g ai/ha; for pest or weed control at 280 g/ha: Table 3, 280 g ai/ha; for pest or weed control at 70 g/ha: Table 3, 70 g ai/ha
# In short: (§2)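 Foliar spray, 187 L/ha, track sprayer; plants at 1st–2nd true leaf, 7–21 d old. Carrier: acetone/DMSO + aqueous acetone/IPA/crop oil/Triton X-155; high rate plus ½×–1/16× dilutions. Subirrigated; visual % injury vs untreated at 14 d.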
# [5] = test system: EPHHL: wild poinsettia (Euphorbia heterophylla); assay: Post-Emergent Test I herbicidal activity; type: in vivo; conditions: post-emergence, 336 h, read-out: Visual Growth Reduction (%)-14 Days after Application EPHHL; for pest or weed control at 140 g/ha: Table 3, 140 g ai/ha; for pest or weed control at 280 g/ha: Table 3, 280 g ai/ha; for pest or weed control at 70 g/ha: Table 3, 70 g ai/ha
# In short: as §1
# [6] = test system: ORYSA: rice (Oryza sativa); assay: Post-Emergent Test I herbicidal activity; type: in vivo; conditions: post-emergence, 336 h, read-out: Visual Growth Reduction (%)-14 Days after Application ORYSA; for pest or weed control at 140 g/ha: Table 3, 140 g ai/ha; for pest or weed control at 280 g/ha: Table 3, 280 g ai/ha; for pest or weed control at 70 g/ha: Table 3, 70 g ai/ha
# In short: as §2
# [7] = test system: ZEAMX: corn (Zea mays); assay: Post-Emergent Test I herbicidal activity; type: in vivo; conditions: Zea mays, post-emergence, 336 h, read-out: Visual Growth Reduction (%)-14 Days after Application ZEAMX; for pest or weed control at 140 g/ha: Table 3, 140 g ai/ha; for pest or weed control at 280 g/ha: Table 3, 280 g ai/ha; for pest or weed control at 70 g/ha: Table 3, 70 g ai/ha
# In short: as §1
melting point,Compound,pest or weed control at 140 g/ha [1],pest or weed control at 140 g/ha [2],pest or weed control at 140 g/ha [3],pest or weed control at 140 g/ha [4],pest or weed control at 140 g/ha [5],pest or weed control at 140 g/ha [6],pest or weed control at 140 g/ha [7],also measured
137 °C,COc1c(C(=O)O)nc(-c2ccc(Cl)c(F)c2)c(F)c1N [Compound 49],100%,100%,100%,100%,100%,25%,90%,–
97 to 99 °C,COC(=O)c1nc(-c2ccc(C(F)(F)F)cc2)c(F)c(N)c1OC [Compound 35],75%,100%,100%,80%,100%,0%,70%,–
139 to 141 °C,"COC(=O)c1nc(-c2ccc(Cl)cc2)c(Cl)c(N)c1OC [Compound 44, methyl 4-amino-5-chloro-6-(4-chlorophenyl)-3-methoxypicolinate]",50%,100%,100%,0%,0%,0%,15%,–
130 to 132 °C,COC(=O)c1nc(-c2ccc(C(F)(F)F)nc2)c(F)c(N)c1OC [Compound 40],80%,100%,100%,50%,100%,0%,70%,–
223 to 225 °C,COc1c(C(=O)O)nc(-c2ccc3c(c2)OCO3)c(F)c1N [Compound 53],80%,100%,100%,80%,0%,15%,75%,–
109 to 110 °C,COC(=O)c1nc(-c2ccc(Cl)c(F)c2)c(F)c(N)c1OC [Compound 32],95%,100%,100%,90%,100%,0%,75%,–
123 to 125 °C,"CCOC(=O)c1nc(-c2ccc(Cl)cc2F)cc(N)c1OCC(F)(F)F [Compound 67, ethyl 4-amino-6-(4-chloro-2-fluorophenyl)-3-(2,2,2-trifluoro-ethoxy)picolinate]",–,–,–,–,–,–,–,pest or weed control at 280 g/ha [1]: 25%; pest or weed control at 280 g/ha [2]: 50%; pest or weed control at 280 g/ha [3]: 0%; pest or weed control at 280 g/ha [4]: 0%; pest or weed control at 280 g/ha [5]: 35%; pest or weed control at 280 g/ha [6]: 0%; pest or weed control at 280 g/ha [7]: 0%
141 to 143 °C,COC(=O)c1nc(-c2ccc(F)cc2)c(F)c(N)c1OC [Compound 36],100%,100%,100%,0%,100%,0%,60%,–
125 to 126 °C,"COC(=O)c1nc(-c2ccc(Cl)c(F)c2)c(F)c(N)c1SC [Compound 93, Methyl 4-amino-6-(4-chloro-3-fluorophenyl)-5-fluoro-3-(methylthio)picolinate]",30%,90%,0%,0%,50%,0%,0%,–
113 to 115 °C,COC(=O)c1nc(-c2ccc(Cl)c(N(C)C)c2F)c(F)c(N)c1OC [Compound 43],90%,100%,50%,80%,100%,0%,70%,–
135 to 137 °C,COc1c(C(=O)O)nc(-c2ccc(C(F)(F)F)cc2)c(F)c1N [Compound 50],90%,90%,100%,70%,100%,30%,75%,–
75 to 77 °C,"COC(=O)c1nc(Cl)c(F)c(N)c1SC [Compound 74, Methyl 4-amino-6-chloro-5-fluoro-3-(methylthio)picolinate]",0%,0%,0%,0%,0%,0%,0%,–
169 to 171 °C,COc1c(Cl)ccc(-c2cc(N)c(OC(F)F)c(C(=O)O)n2)c1F [Compound 64],–,–,–,–,–,–,–,pest or weed control at 280 g/ha [1]: 50%; pest or weed control at 280 g/ha [2]: 85%; pest or weed control at 280 g/ha [3]: 0%; pest or weed control at 280 g/ha [4]: 0%; pest or weed control at 280 g/ha [5]: 95%; pest or weed control at 280 g/ha [6]: 0%; pest or weed control at 280 g/ha [7]: 10%
147 to 148 °C,COc1c(C(=O)O)nc(-c2cc(F)c(Br)cc2F)c(F)c1N [Compound 59],–,–,–,–,–,–,–,pest or weed control at 70 g/ha [1]: 80%; pest or weed control at 70 g/ha [2]: 100%; pest or weed control at 70 g/ha [3]: 50%; pest or weed control at 70 g/ha [4]: 100%; pest or weed control at 70 g/ha [5]: 100%; pest or weed control at 70 g/ha [6]: 5%; pest or weed control at 70 g/ha [7]: 70%
119 to 121 °C,"COC(=O)c1nc(Cl)c(Cl)c(N)c1OC [Compound 2, methyl 4-amino-5,6-dichloro-3-methoxypicolinate]",–,–,–,–,–,–,–,pest or weed control at 280 g/ha [1]: 90%; pest or weed control at 280 g/ha [2]: 90%; pest or weed control at 280 g/ha [3]: 0%; pest or weed control at 280 g/ha [4]: 0%; pest or weed control at 280 g/ha [5]: 95%; pest or weed control at 280 g/ha [6]: 0%; pest or weed control at 280 g/ha [7]: 0%
168 to 170 °C,CSc1c(C(=O)O)nc(-c2ccc(Cl)c(F)c2)c(F)c1N [Compound 72],80%,100%,90%,0%,100%,30%,60%,–
114 to 118 °C,"COC(=O)c1nc(-c2ccc(Cl)c(OC)c2F)cc(N)c1OC [Compound 5, methyl 4-amino-6-(4-chloro-2-fluoro-3-methoxyphenyl)-3-methoxypicolinate]",–,–,–,–,–,–,–,pest or weed control at 70 g/ha [1]: 100%; pest or weed control at 70 g/ha [2]: 100%; pest or weed control at 70 g/ha [3]: 20%; pest or weed control at 70 g/ha [4]: 80%; pest or weed control at 70 g/ha [5]: 100%; pest or weed control at 70 g/ha [6]: 0%; pest or weed control at 70 g/ha [7]: 60%
93 to 94 °C,"COC(=O)c1nc(-c2ccc(Cl)cc2)c(F)c(N)c1OC [Compound 31, methyl 4-amino-6-(4-chlorophenyl)-5-fluoro-3-methoxypicolinate]",100%,100%,100%,95%,100%,15%,85%,–
